# Legend:
# Format in all cases: cell-based
# [1] = test system: interferon production in human PBMC; experiment: Interferon production in human PBMC, read out on HEK-ISRE-luc reporter cells; conditions: Homo sapiens, PBMC, 24 h, lowest effective concentration, PBMC incubated overnight with compound, supernatant transferred to HEK-ISRE-luc cells, read-out: PBMC HEK-ISRE-luc (LEC; μM)
# Description: Activation of human TLR7 results in robust production of interferon by plasmacytoid dendritic cells present in human blood. The potential of compounds to induce interferon was evaluated by determination of interferon in the conditioned media from peripheral blood mononuclear cells (PBMC). The presence of interferon in the samples was determined, using an interferon reporter cell line stably expressing an interferon-stimulated responsive elements (ISRE)-luc reporter construct. The ISRE element with sequence TAGTTTCACTTTCCC (SEQ ID NO: 1) is highly responsive to the STAT1-STAT2-IRF9 transcription factor, which becomes activated upon binding of IFN-I to the IFN receptor. Briefly, PBMCs were prepared from buffy coats of at least two donors using a standard Ficoll centrifugation protocol. Isolated PBMCs were resuspended in RPMI medium supplemented with 10% human AB serum and 2×10^5 cells/well were dispensed into 384-well plates containing compounds (70 μL total volume). After overnight incubation of the PBMCs with the compounds, 10 μL of supernatant was transferred to 384-well plates containing 5×10^3 HEK-ISRE-luc cells/well in 30 μL (plated the day before). Following 24 hours of incubation, activation of the ISRE elements was measured by assaying luciferase activity using 40 μL/well Steady Lite Plus substrate (Perkin Elmer) and measured with ViewLux ultraHTS microplate imager (Perkin Elmer). The stimulating activity of each compound on the HEK-ISRE-luc cells was reported as LEC. The LEC in turn indicates the degree of ISRE activation on transfer of a defined amount of PBMC culture medium. Recombinant interferon alfa-2a (Roferon-A) was used as a standard control compound.
# human TLR8 = target: T1, human TLR8 (Homo sapiens, UniProt Q9NR97); experiment: HEK293 TLR8-NFκB-luc cellular reporter assay; conditions: lowest effective concentration; greater than the highest tested concentration
# T1 construct: expressed in transfected cells; host or cells: HEK293
# T1 sequence (Q9NR97 27-1041): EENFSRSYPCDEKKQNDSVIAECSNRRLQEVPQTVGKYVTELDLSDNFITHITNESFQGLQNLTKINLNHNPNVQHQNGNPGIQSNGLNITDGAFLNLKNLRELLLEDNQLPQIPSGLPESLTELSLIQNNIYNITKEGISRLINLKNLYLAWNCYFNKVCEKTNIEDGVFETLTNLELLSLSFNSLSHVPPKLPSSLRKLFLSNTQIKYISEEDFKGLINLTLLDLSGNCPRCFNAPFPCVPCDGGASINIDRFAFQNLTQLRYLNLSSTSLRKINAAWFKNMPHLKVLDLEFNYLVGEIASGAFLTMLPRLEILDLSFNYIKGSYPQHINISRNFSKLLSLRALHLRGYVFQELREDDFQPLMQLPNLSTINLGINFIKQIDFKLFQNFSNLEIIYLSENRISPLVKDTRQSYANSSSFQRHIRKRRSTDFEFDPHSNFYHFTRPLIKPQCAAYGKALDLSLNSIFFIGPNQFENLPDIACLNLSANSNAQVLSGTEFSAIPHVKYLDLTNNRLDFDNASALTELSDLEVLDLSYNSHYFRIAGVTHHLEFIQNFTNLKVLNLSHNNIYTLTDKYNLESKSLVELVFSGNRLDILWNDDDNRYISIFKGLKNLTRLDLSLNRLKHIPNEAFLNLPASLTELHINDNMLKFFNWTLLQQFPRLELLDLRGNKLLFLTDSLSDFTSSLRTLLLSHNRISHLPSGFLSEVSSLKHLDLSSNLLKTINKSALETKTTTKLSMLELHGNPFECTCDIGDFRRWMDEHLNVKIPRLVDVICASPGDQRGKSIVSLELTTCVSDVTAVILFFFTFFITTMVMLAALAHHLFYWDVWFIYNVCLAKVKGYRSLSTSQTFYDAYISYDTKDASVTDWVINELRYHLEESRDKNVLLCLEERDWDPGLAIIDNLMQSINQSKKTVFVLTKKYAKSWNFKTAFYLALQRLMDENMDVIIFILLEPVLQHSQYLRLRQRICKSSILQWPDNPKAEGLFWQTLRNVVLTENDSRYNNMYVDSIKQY
# Description: (§1) The ability of compounds to activate human TLR7 and TLR8 was assessed in a cellular reporter assay using HEK293 cells transiently transfected with a TLR7 or TLR8 expression vector and NFκB-luc reporter construct. Briefly, HEK293 cells were grown in culture medium (DMEM supplemented with 10% FCS and 2 mM Glutamine). For transfection of cells in 15 cm dishes, cells were detached with Trypsin-EDTA, transfected with a mix of CMV-TLR7 or TLR8 plasmid (1,700 ng), NFκB-luc plasmid (850 ng) and a transfection reagent and incubated 48 hours at 37° C. in a humidified 5% CO2 atmosphere. Transfected cells were then washed in PBS, detached with Trypsin-EDTA, and resuspended in medium to a density of 1.25×10^5 cells/mL. Forty microliters of cells were then dispensed into each well in 384-well plates, where 200 nL of compound in 100% DMSO was already present. Following 6 hours incubation at 37° C., 5% CO2, the luciferase activity was determined by adding 15 μl of Steady Lite Plus substrate (Perkin Elmer) to each well and readout performed on a ViewLux ultraHTS microplate imager (Perkin Elmer). Dose response curves were generated from measurements performed in quadruplicates. Lowest effective concentrations (LEC) values, defined as the concentration that induces an effect which is at least two fold above the standard deviation of the assay, were determined for each compound.
# human TLR7 = target: T2, human TLR7 (Homo sapiens, UniProt Q9NYK1); experiment: HEK293 TLR7-NFκB-luc cellular reporter assay; conditions: lowest effective concentration; HEK293 transiently transfected with TLR7 and NFκB-luc; 6 hours incubation
# T2 construct: expressed in transfected cells; host or cells: HEK293
# T2 sequence (Q9NYK1 27-1049): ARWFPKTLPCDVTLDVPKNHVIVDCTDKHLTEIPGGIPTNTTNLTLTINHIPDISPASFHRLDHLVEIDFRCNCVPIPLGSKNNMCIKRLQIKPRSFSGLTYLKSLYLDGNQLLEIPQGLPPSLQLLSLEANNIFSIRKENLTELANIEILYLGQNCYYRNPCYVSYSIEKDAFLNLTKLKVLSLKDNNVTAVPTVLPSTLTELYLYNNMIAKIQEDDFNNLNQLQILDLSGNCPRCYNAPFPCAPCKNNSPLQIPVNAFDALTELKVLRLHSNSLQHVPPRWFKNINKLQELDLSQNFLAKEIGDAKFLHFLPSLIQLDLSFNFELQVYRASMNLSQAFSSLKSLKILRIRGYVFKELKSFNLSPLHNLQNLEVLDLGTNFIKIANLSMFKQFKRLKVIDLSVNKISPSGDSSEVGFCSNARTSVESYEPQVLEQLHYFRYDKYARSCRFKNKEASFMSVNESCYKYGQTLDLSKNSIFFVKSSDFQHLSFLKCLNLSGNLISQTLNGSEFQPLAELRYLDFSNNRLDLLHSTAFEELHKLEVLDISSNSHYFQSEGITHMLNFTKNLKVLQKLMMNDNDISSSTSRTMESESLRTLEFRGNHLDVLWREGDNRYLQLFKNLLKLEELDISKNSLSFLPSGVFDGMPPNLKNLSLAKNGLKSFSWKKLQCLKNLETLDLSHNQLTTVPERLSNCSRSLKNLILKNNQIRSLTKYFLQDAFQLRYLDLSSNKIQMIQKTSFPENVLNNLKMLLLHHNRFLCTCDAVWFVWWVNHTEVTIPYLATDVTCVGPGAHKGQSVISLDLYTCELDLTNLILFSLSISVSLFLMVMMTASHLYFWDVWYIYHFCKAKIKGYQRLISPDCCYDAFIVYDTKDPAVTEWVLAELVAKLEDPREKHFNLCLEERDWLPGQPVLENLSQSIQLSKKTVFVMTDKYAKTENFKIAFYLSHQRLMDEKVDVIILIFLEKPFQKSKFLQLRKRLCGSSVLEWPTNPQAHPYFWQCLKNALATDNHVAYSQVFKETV
# Description: as §1
# HEK293 NFκB-luc = experiment: Counterscreen: HEK293 cells transfected with NFκB-luc reporter construct alone; conditions: lowest effective concentration; greater than the highest tested concentration
# Description: In parallel, a similar dilution series of compound was used (200 nL of compound in 100% DMSO) with 40 μL per well of cells transfected with NFκB-luc reporter construct alone (1.25×10^5 cells/mL). Six hours after incubation at 37° C., 5% CO2, the luciferase activity was determined by adding 15 μl of Steady Lite Plus substrate (Perkin Elmer) to each well and readout performed on a ViewLux ultraHTS microplate imager (Perkin Elmer). Counterscreen data is reported as LEC.
structure (smiles),measurement,setting,value
Nc1nc2cc3c1nc(O)n3Cc1cccc(c1)CCCCCO2 [Compound 4],minimal effective concentration,[1],2.56 µM
same,LEC on HEK293 TLR8-NFκB-luc,human TLR8,> 10 µM
same,HEK293 TLR7-NFκB-luc (LEC; μM),human TLR7,2.38 µM
same,LEC on HEK293 NFκB-luc (counterscreen),HEK293 NFκB-luc,> 10 µM

# Reference: patent US11702426B2, “Macrocyclic deaza-purinones for the treatment of viral infections” (JANSSEN SCIENCES IRELAND UNLIMITED COMPANY, priority 2013, dated 2023)
